PubChem BioAssay (NCI)
Values joined by “and” are separate entries in the source; they are usually repeats but may differ in a detail not shown here. Equal entries are not always repeated.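 Compound exposure: 48 hours, 5 concentrations, 96-well plates. GI50 = concentration required for 50% inhibition of growth. TGI marks complete inhibition of growth.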

Key:
Test in all cases: NCI tumour cell line growth inhibition, 48 h
A549 NSCLC = tested on: A549 NSCLC
ACHN renal = tested on: ACHN renal
COLO 205 colon = tested on: COLO 205 colon
KM12 colon = tested on: KM12 colon
MOLT-4 leukemia = tested on: MOLT-4 leukemia
NCI-H226 lung = tested on: NCI-H226 lung
OVCAR-5 ovarian = tested on: OVCAR-5 ovarian
PC-3 prostate = tested on: PC-3 prostate
SF-295 CNS = tested on: SF-295 CNS
SW-620 colon = tested on: SW-620 colon

Row | SMILES | GI50 (A549 NSCLC) | TGI (A549 NSCLC) | GI50 (ACHN renal) | TGI (ACHN renal) | GI50 (COLO 205 colon) | TGI (COLO 205 colon) [µM] | GI50 (KM12 colon) | TGI (KM12 colon) | GI50 (MOLT-4 leukemia) | TGI (MOLT-4 leukemia) | GI50 (NCI-H226 lung) [µM] | TGI (NCI-H226 lung) | GI50 (OVCAR-5 ovarian) [µM] | TGI (OVCAR-5 ovarian) | GI50 (PC-3 prostate) [µM] | TGI (PC-3 prostate) | GI50 (SF-295 CNS) | TGI (SF-295 CNS) [µM] | GI50 (SW-620 colon) | TGI (SW-620 colon)
1 | O=[N+]([O-])c1ccccc1/C=N\NC(=S)N/N=C/c1ccccc1[N+](=O)[O-] | 8.92 µM | > 100 µM | 7.53 µM | > 100 µM | 11.3 µM | > 100 | 2.55 µM | > 100 µM | 6.47 µM | > 100 µM | 75.4 | > 100 µM | 51 | > 100 µM | 10 | > 100 µM | 1.87 µM | 7.41 | 4.29 µM | > 100 µM
2 | N[C@H]1CCC[C@@H](O)C1O (stereo partly drawn) |  | > 100 µM |  | > 100 µM |  | > 100 |  | > 100 µM | > 100 µM | > 100 µM |  | > 100 µM |  | > 100 µM |  | > 100 µM |  | > 100 |  | > 100 µM
3 | CC(C)(C)OC(=O)NCCCCCCCCCn1c2c(c3ccccc3c1=O)C(=O)c1ccccc1-2 | > 100 µM | > 100 µM | 27 µM | > 100 µM | > 100 µM | > 100 | > 100 µM | > 100 µM | > 100 µM | > 100 µM | 41 | > 100 µM | > 100 | > 100 µM | > 100 | > 100 µM | 24.8 µM | > 100 | > 100 µM | > 100 µM
4 | CN(C)S(=O)(=O)c1cccc(C(=O)Nc2nc(-c3ccc(F)c(F)c3)cs2)c1 | 13.2 µM | > 100 µM | 10.5 µM | > 100 µM | 35.6 µM | > 100 | 24.2 µM | > 100 µM | 3.52 µM | > 55.2 µM | 9.32 | 98.3 µM | 98.4 | > 100 µM | 5.96 | > 100 µM | 2.58 µM | 26.4 | 47.9 µM | > 100 µM
5 | CN1CCN(C2=C(Cl)C(=O)c3ccccc3C2=O)CC1 | 3.42 µM | 11.2 µM | 1.57 µM | 2.94 µM | 1.51 µM | 2.9 | 5.27 µM | 16.7 µM | 2.2 µM | 8.26 µM | 3.31 | 10.4 µM | 2.03 | 4.18 µM | 3.45 | 8.91 µM | 4.8 µM | 15.9 | 1.67 µM | 3.23 µM
6 | O=C(O)CCCN1C(=O)/C(=C/C(Cl)=C/c2ccccc2)SC1=S | 3.02 µM | 11.9 µM | 1.2 µM | 4.4 µM | 1.9 µM | 4.49 | 1.47 µM | 3.54 µM | 0.591 µM | 11.9 µM | 2.98 | 18.4 µM | 2.48 | 5.78 µM | 2.23 | 10.3 µM | 2.57 µM | 7.16 | 1.3 µM | 3.86 µM
7 | OCc1c(-c2cccs2)oc(-c2cccs2)c1CO | 54.9 µM | > 100 µM | 23.8 µM | 72.1 µM | 35.9 µM | > 100 | 21.3 µM | > 100 µM | 27.9 µM | > 100 µM | 50.3 | > 100 µM | 69.2 | > 100 µM | 37.7 | > 100 µM | 27.7 µM | > 100 | 63.6 µM | > 100 µM
8 | NC(CSC(c1ccccc1)(c1ccccc1)c1ccccc1)C(=O)O (stereo not drawn) | 4.86 µM and 2.75 µM | 82.1 µM and > 100 µM | 20.2 µM and 9.65 µM | 79.5 µM and > 100 µM | 3.27 µM and 1.34 µM |  | 5.15 µM and 2.35 µM | 96.3 µM and 24 µM | 7.54 µM and 5.01 µM | 83.8 µM and 15.9 µM and > 100 µM | 22.1 | 90.1 µM and > 100 µM | 4.28 | 89.4 µM and > 100 µM | 2.43 | 12.1 µM and > 100 µM | 0.485 µM and 0.522 µM and 2.65 µM |  | 1.64 µM and 0.968 µM | 107 µM and > 100 µM
9 | O=C1c2ccccc2C(=O)c2c1ccc1conc21 |  | 11.2 µM |  | 3.75 µM |  | 12.3 |  | 7.45 µM |  | 6.25 µM |  | 14.9 µM |  | 6.93 µM |  | 5.06 µM |  | 4.97 |  | 4.36 µM
10 | COc1ccc(-n2nc(C)c3c(Nc4ccc(NC(=O)Nc5cccc(C(F)(F)F)c5)cc4)ncnc32)cc1 | 1.65 µM | 3.45 µM | 1.6 µM | 3.43 µM | 1.65 µM | 3.49 | 1.63 µM | 3.76 µM | 2.01 µM | 6.16 µM | 1.84 | 4.2 µM | 1.76 | 4.12 µM | 1.49 | 3.9 µM | 1.67 µM | 3.3 | 2.14 µM | 5.18 µM
11 | O=C(CCN1CCCC1)Nc1ccc2c(Nc3ccc(F)cc3)c3ccccc3nc2c1 | 0.424 µM | 3.62 µM | 0.526 µM | 1.98 µM | 1.3 µM | 3.51 | 1.48 µM | 4.11 µM | 0.133 µM | 3.02 µM | 1.41 | 3.21 µM | 1.95 | 4.7 µM | 1.34 | 3.97 µM | 1.05 µM | 2.32 | 0.64 µM | 2.29 µM
12 | O=C(Nc1cc(Cl)c(I)c(Cl)c1)C(F)(F)F |  |  |  | > 100 µM |  | 53.9 |  | 85.4 µM |  | 82.7 µM |  | 66.8 µM |  | 83 µM |  | 83.8 µM |  | > 100 |  | > 100 µM
13 | COc1ccc(C2=Nn3c(nnc3-c3ccc(F)c(Cl)c3)SC2)cc1 | > 100 µM | > 100 µM | > 100 µM | > 100 µM | > 100 µM | > 100 | > 100 µM | > 100 µM | > 100 µM | > 100 µM | > 100 | > 100 µM | 84.6 | > 100 µM | > 100 | > 100 µM | > 100 µM | > 100 | > 100 µM | > 100 µM
14 | O=S(=O)(F)Cc1ccccc1 |  | > 100 µM |  | > 100 µM |  | > 100 |  | > 100 µM |  | > 100 µM |  | > 100 µM |  | > 100 µM |  | > 100 µM |  | > 100 |  | > 100 µM
